Experiments:
[1] = system: Dengue virus (serotype 2, Thailand 16681 strain); format: cell-based; settings: Huh7.5.1 cells, MOI 0.1, 2 μM compound for 3 h, RNA 48 h post-infection
[2] = system: cap-dependent translation (Firefly luciferase); format: biochemical; settings: 1 μM compound, Krebs-2 extracts, relative to DMSO
translation = settings: ref 9p; cited from earlier work
[3] = system: HCV IRES-dependent translation (Renilla luciferase); format: biochemical; settings: 1 μM compound, Krebs-2 extracts, relative to DMSO
HCV = format: cell-based; settings: time-of-addition; racemic compounds
[4] = system: hepatitis C viral (HCV) entry; settings: at a low μM concentration; cited from earlier work
[5] = system: HCV (HCVcc-Luc) infection of Huh7.5.1 cells; experiment: HCV infection inhibition assay; format: cell-based; settings: relative to aglaroxin C (6)
Huh7.5.1 cells = experiment: Cytotoxicity, CellTiter-Glo Cell Viability Luminescent Assay; format: cell-based

Compound	translation inhibition of firefly luciferase (cap-dependent) [2]	translation inhibition (in words) (translation)	inhibition of HCV mRNA (IRES-dependent) translation [3]	anti-HCV activity, compound added 3 h after infection was initiated (HCV)	anti-HCV activity, compound added together with the virus (HCV)	other results
COc1ccc([C@@]23Oc4cc(OC)cc(OC)c4[C@]2(O)[C@H](O)[C@H](C(=O)N(C)C)[C@H]3c2ccccc2)cc1 [rocaglamide]	–	–	–	–	–	inhibition of Dengue virus infection [1]: inhibited
CONC(=O)[C@H]1[C@@H](O)[C@@]2(O)c3c(OC)cc(OC)cc3O[C@@]2(c2ccc(OC)cc2)[C@@H]1c1ccccc1 [CR-1–31-B]	strong inhibition	–	–	–	–	–
COc1ccc([C@@]23Oc4cc(OC)cc(OC)c4[C@]2(O)C2=C(C(=O)N4CCC[C@H]4N2)[C@H]3c2ccccc2)cc1 [compound 5, aglaiastatin]	–	promising translation inhibitor	–	–	–	–
aglaroxin C [compound 6]	minimal	only moderate translation inhibition	not inhibited	partially lost their activity	maximal anti-HCV activity	inhibition of HCV entry into host cells [4]: inhibited
COc1ccc([C@@]23Oc4cc(OC)cc(OC)c4[C@]2(O)c2nc(-c4cccc(OC)c4)[nH]c(=O)c2[C@H]3c2ccccc2)cc1 [12s]	minimal	–	not inhibited	partially lost their activity	maximal anti-HCV activity	inhibition of HCV infection in comparison to 6 (fold) [5]: three-fold greater inhibition; cell death at 200 μM (Huh7.5.1 cells): less than 50%; cell death reached (Huh7.5.1 cells): < 50%; maximum cytotoxicity plateau, cell death (Huh7.5.1 cells): 35%

Reference: PMC6583776 (Journal of the American Chemical Society, 2019)
